This passage reports logP and chromatographic logP results from patent US8946234B2, “Halogen-substituted compounds” (Bayer CropScience AG, priority 2008, dated 2015).

One series in a line: physchem. Format: physicochemical.
Details: not given
As to the method:
^a) Note regarding the determination of the log P values and mass detection: The log P values given were determined in accordance with EEC Directive 79/831 Annex V.A8 by HPLC (High Performance Liquid Chromatography) on a phase inversion column (C18). Agilent 1100 LC system; 50*4.6 Zorbax Eclipse Plus C18 1.8 micron; eluent A: acetonitrile (0.1% formic acid); eluent B: water (0.09% formic acid); linear gradient from 10% acetonitrile to 95% acetonitrile in 4.25 min, then 95% acetonitrile for a further 1.25 min; oven temperature 55° C.; flow: 2.0 ml/min. The mass detection is carried out via an Agilend MSD system.
As to `O=C(NC1CC1)c1cc(NC(=O)c2cnc(C(F)(F)F)nc2C(F)(F)F)ccc1Cl` [Ib-3], the logP is 2.78^a).
With `O=C(NCC(F)(F)F)c1cc(NC(=O)c2cnc(C(F)(F)F)nc2C(F)(F)F)ccc1Cl` [Ib-4], the logP is 3.14^a).
Same read-out and setting: the figure for `O=C(NCC=CCl)c1cc(NC(=O)c2cnc(C(F)(F)F)nc2C(F)(F)F)ccc1Cl` [Ib-5] is 3.19^a).

Still in this series, the particulars now being: HPLC method a), eluent acetonitrile/water with formic acid; read-out: logP.
For `Cn1ccc(C(F)(F)C(F)(F)C(F)(F)F)n1` [1-Methyl-3-heptafluoropropyl-1H-pyrazole], the chromatographic logP was determined as 2.84.
`Cn1nc(C(F)(F)C(F)(F)C(F)(F)C(F)(F)F)cc1C(=O)O` [1-Methyl-3-nonafluorobutyl-1H-pyrazole-5-carboxylic acid]: the chromatographic logP worked out at 3.01.
Consider `Cn1ccc(C(F)(F)C(F)(F)C(F)(F)C(F)(F)F)n1` [1-Methyl-3-nonafluorobutyl-1H-pyrazole], for which the chromatographic logP is 3.38.
Same read-out and setting: with `Cn1nc(C(F)(F)C(F)(F)F)c(C(F)(F)F)c1C(=O)O` [1-Methyl-3-pentafluoroethyl-4-trifluoromethyl-1H-pyrazole-5-carboxylic acid] the figure was 1.86; with `O=C(O)c1cnc(C(F)(F)C(F)(F)C(F)(F)F)nc1C(F)(F)F` [2-(Heptafluoropropyl)-4-(trifluoromethyl)pyrimidine-5-carboxylic acid], 2.23.
Turning to `Cn1nc(C(F)(F)C(F)(F)C(F)(F)F)c(Br)c1C(=O)O` [4-Bromo-1-methyl-3-heptafluoropropyl-1H-pyrazole-5-carboxylic acid], the chromatographic logP amounted to 2.26.
On the same count and under the same terms, the figure for `Cn1cc(Br)c(C(F)(F)C(F)(F)C(F)(F)F)n1` [4-Bromo-1-methyl-3-heptafluoropropyl-1H-pyrazole] is 3.53; for `Cn1nc(C(F)(F)C(F)(F)C(F)(F)C(F)(F)F)c(Br)c1C(=O)O` [4-Bromo-1-methyl-3-nonafluorobutyl-1H-pyrazole-5-carboxylic acid] it is 3.17; for `CCOC(=O)c1cnc(C(F)(F)C(F)(F)C(F)(F)F)nc1C(F)(F)F` [Ethyl 2-(heptafluoropropyl)-4-(trifluoromethyl)pyrimidine-5-carboxylate] it is 4.32.

Staying with this series, now noted: HPLC phase inversion (reversed-phase) C18 column, HPLC method a), eluent acetonitrile/water with formic acid; read-out: logP.
`CCn1nc(C(F)(F)C(F)(F)F)c(C(F)(F)F)c1C(=O)O` [1-Ethyl-3-(pentafluoroethyl)-4-(trifluoromethyl)-1H-pyrazole-5-carboxylic acid]: the chromatographic logP stood at 2.18.
Turning to `Cn1nc(C(F)(F)F)c(C(F)(F)F)c1C(=O)O` [1-Methyl-3,4-bis(trifluoromethyl)-1H-pyrazole-5-carboxylic acid], the chromatographic logP turned out to be 1.47.
For the compound `Cn1ccc(C(F)(Cl)C(F)(F)F)n1` (centres unmarked) [1-Methyl-3-(1-chloro-1,2,2,2-tetrafluoroethyl)-1H-pyrazole], the chromatographic logP came out at 2.46.
Same read-out and setting: the figure for `Cn1nc(C(F)(F)C(F)(F)F)cc1C(=O)O` [1-Methyl-3-pentafluoroethyl-1H-pyrazole-5-carboxylic acid] is 2.08.
Same read-out and setting: the figure for `Cn1ccc(C(F)(F)C(F)(F)F)n1` [1-Methyl-3-pentafluoroethyl-1H-pyrazole] is 2.29; for `Cc1nc(C(=O)Nc2ccc(Cl)c(C(=O)O)c2)c(C(F)(F)F)c(C(F)(F)C(F)(F)F)n1` [2-chloro-5-({[2-methyl-6-(pentafluoroethyl)-5-(trifluoromethyl)pyrimidin-4-yl]carbonyl}amino)benzoic acid] it is 3.3; for `O=C(NC1CC1)c1cc(NC(=O)c2cnc(Cl)cc2C(F)(F)F)ccc1Cl` [2-chloro-N-[4-chloro-3-(cyclopropylcarbamoyl)phenyl]-4-(trifluoromethyl)pyridine-5-carboxamide] it is 2.35.
Still for that read-out and setting: the figure for `O=C(O)c1[nH]nc(C(F)(F)C(F)(F)F)c1C(F)(F)F` [3-(Pentafluoroethyl)-4-(trifluoromethyl)-1H-pyrazole-5-carboxylic acid] is 2.
With `Cn1ccc(C(F)(F)OC(F)(F)OC(F)(F)F)n1` [3-{[Difluoro(trifluoromethoxy)methoxy](difluoro)methyl}-1-methyl-1H-pyrazole], the chromatographic logP was determined as 3.79.
On the same count and under the same terms, the figure for `Cc1nc(C(F)(F)C(F)(F)F)nc(C)c1C(=O)O` [4,6-Dimethyl-2-(pentafluoroethyl)pyrimidine-5-carboxylic acid] is 1.63; for `O=C(O)c1cnc(C(F)(F)C(F)(F)F)nc1C(F)F` [4-(Difluoromethyl)-2-(pentafluoroethyl)pyrimidine-5-carboxylic acid] it is 1.8; for `Cn1nc(C(F)(Cl)C(F)(F)F)c(Br)c1C(=O)O` (centres unmarked) [4-Bromo-1-methyl-3-(1-chloro-1,2,2,2-tetrafluoroethyl)-1H-pyrazole-5-carboxylic acid] it is 2.43.
Same read-out and setting: with `Cn1cc(Br)c(C(F)(Cl)C(F)(F)F)n1` (centres unmarked) [4-Bromo-1-methyl-3-(1-chloro-1,2,2,2-tetrafluoroethyl)-1H-pyrazole] the figure was 3.17.
Regarding `Cn1nc(C(F)(F)C(F)(F)F)c(Br)c1C(=O)O` [4-Bromo-1-methyl-3-pentafluoroethyl-1H-pyrazole-5-carboxylic acid], the chromatographic logP was determined as 4.69.
Still for that read-out and setting: the figure for `Cn1nc(C(F)(F)OC(F)(F)OC(F)(F)F)c(Br)c1C(=O)O` [4-Bromo-3-{[(difluoro(trifluoromethoxy)methoxy](difluoro)methyl}-1-methyl-1H-pyrazole-5-carboxylic acid] is 3.56.
As to `Cc1nc(C(F)(F)C(F)(F)F)ncc1C(=O)O` [4-Methyl-2-(pentafluoroethyl)pyrimidine-5-carboxylic acid], the chromatographic logP amounted to 1.97.
On the same count and under the same terms, the figure for `Cc1nc(C(F)(F)F)ncc1C(=O)O` [4-Methyl-2-(trifluoromethyl)pyrimidine-5-carboxylic acid] is 1.26.
For `Cn1nc(C(F)(F)C(F)(F)F)c(C(F)(F)F)c1C(=O)Nc1cc(C(=O)O)c(Br)cn1` [5-bromo-2-({[1-methyl-3-(pentafluoroethyl)-4-(trifluoromethyl)-1H-pyrazol-5-yl]carbonyl}amino)isonicotinic acid], the chromatographic logP came to 2.85.
Same read-out and setting: with `O=C(NC1CC1)c1cc(NC(=O)c2ncc(Cl)cc2C(F)(F)F)ccc1Cl` [5-chloro-N-[4-chloro-3-(cyclopropylcarbamoyl)phenyl]-3-(trifluoromethyl)pyridine-2-carboxamide] the figure was 2.55; with `CCOC(=O)c1c(C)nc(C(F)(F)C(F)(F)F)nc1C` [Ethyl 4,6-dimethyl-2-(pentafluoroethyl)pyrimidine-5-carboxylate], 3.68.
The same measure, in the same setting: the figure for `CCOC(=O)c1cnc(C(F)(F)C(F)(F)F)nc1C(F)F` [Ethyl 4-(difluoromethyl)-2-(pentafluoroethyl)pyrimidine-5-carboxylate] is 3.42.
Turning to `Cc1nc(C(=O)Nc2ccc(Cl)c(C(=O)NC3CC3)c2)c(C(F)(F)F)c(C(F)(F)C(F)(F)F)n1` [Ia-1, N-[4-Chloro-3-(cyclopropylcarbamoyl)phenyl]-2-methyl-6-(pentafluoroethyl)-5-(trifluoromethyl)pyrimidine-4-carboxamide], the chromatographic logP was determined as 3.33.

Staying with this series, now noted: logP.
`Cn1nc(C(F)(F)OC(F)(F)OC(F)(F)F)cc1C(=O)O` [3-{[Difluoro(trifluoromethoxy)methoxy](difluoro)methyl}-1-methyl-1H-pyrazole-5-carboxylic acid] showed a chromatographic logP of 3.38.
